Measurements published in patent US20220117964A1, “COMBINATION OF FAK INHIBITOR AND BTK INHIBITOR FOR TREATING A DISEASE” (ASCENTAGE PHARMA (SUZHU) CO., LTD., priority 2019, published 2022).
Read-outs that look alike come from different tables or passages of the source.

Tests used:
Experiment in all cases: CCK-8 cell viability assay
Assay type in all cases: cell-based
KYSE-520 = settings: Homo sapiens; KYSE-520 cells, CCK-8, 72 hours; read-out: IC50, proliferation inhibition
Experimental: (§1) Cell viability was measured using Cell Counting Kit-8 (Dojindo, Japan) according to the manufacturer's instructions. In short, cells were inoculated in a 96-well plate at 3000 to 4000 cells/well in the presence of a single drug or a combination of drugs for 72 hours. After 72 hours, CCK-8 reagent (10 μL/well) was added and incubated at 37° C. for 1-2 hours, and absorbance readings at 450 nm were obtained. The IC50 values were calculated by using GraphPad Prism version 6.0.0 (GraphPad Software, San Diego, Calif. USA) for Windows.
(§2) (1) The experimental method was described in item (1) and item (5) of Example 2. The expression difference of FAK gene between normal esophageal tissue and esophageal cancer tissue was determined by analyzing the TCGA database source information in the GEPIA database (http://gepia.cancer-pku.cn/), and the correlation between the FAK gene and the EGFR gene in esophageal cancer was determined by analyzing the TCGA database source information using the Pearson test. The basic protein expression levels for the following proteins in 6 esophageal cancer cell lines (TE-10, TE-1, YES-2, KYSE-520, KYSE-510, KYSE-150) were detected by Western blot method: EGFR, phosphorylated-EGFR (p-EGFR, Tyr1068), FAK, phosphorylated-FAK (p-FAK, Tyr397), BTK, C-Myc, phosphorylated-C-Myc (p-C-Myc), in which f3-tubulin was used as internal reference protein.
(§3) (1) The experimental methods were as described in the items (1), (3) and (4) of Example 2.

KYSE-150 = settings: Homo sapiens; KYSE-150 cells, CCK-8, 72 hours; read-out: IC50, proliferation inhibition
Experimental: as §1, §2, §3

YES-2 = settings: read-out: IC50, proliferation inhibition
Experimental: as §1, §2, §3

TE-10 = settings: Homo sapiens; TE-10 cells, CCK-8, 72 hours; read-out: IC50, proliferation inhibition
Experimental: as §1, with “Windows. […] The expression difference of FAK gene between normal esophageal tissue and esophageal cancer tissue was determined by analyzing the TCGA database source information in the GEPIA database (http://gepia.cancer-pku.cn/), and the correlation between the FAK gene and the EGFR gene in esophageal cancer was determined by analyzing the TCGA database source information using the Pearson test. The basic protein expression levels for the following proteins in 6 esophageal cancer cell lines (TE-10, TE-1, YES-2, KYSE-520, KYSE-510, KYSE-150) were detected by Western blot method: […]” for “Windows.”

TE-1 = settings: Homo sapiens; TE-1 cells, CCK-8, 72 hours; read-out: IC50, proliferation inhibition
Experimental: as §1, with “Windows. […] The expression difference of FAK gene between normal esophageal tissue and esophageal cancer tissue was determined by analyzing the TCGA database source information in the GEPIA database (http://gepia.cancer-pku.cn/), and the correlation between the FAK gene and the EGFR gene in esophageal cancer was determined by analyzing the TCGA database source information using the Pearson test. The basic protein expression levels for the following proteins in 6 esophageal cancer cell lines (TE-10, TE-1, YES-2, KYSE-520, KYSE-510, KYSE-150) were detected by Western blot method: […]” for “Windows.”

KYSE-510 = settings: Homo sapiens; KYSE-510 cells, CCK-8, 72 hours; read-out: IC50, proliferation inhibition
Experimental: as §1, with “Windows. […] The expression difference of FAK gene between normal esophageal tissue and esophageal cancer tissue was determined by analyzing the TCGA database source information in the GEPIA database (http://gepia.cancer-pku.cn/), and the correlation between the FAK gene and the EGFR gene in esophageal cancer was determined by analyzing the TCGA database source information using the Pearson test. The basic protein expression levels for the following proteins in 6 esophageal cancer cell lines (TE-10, TE-1, YES-2, KYSE-520, KYSE-510, KYSE-150) were detected by Western blot method: […]” for “Windows.”

| SMILES | IC50 (KYSE-520) | IC50 (KYSE-150) | IC50 (YES-2; YES-2 cells, CCK-8, 72 hours) | IC50 (TE-10) | IC50 (TE-1) | IC50 (KYSE-510) | IC50 (YES-2; 72 h) |
| --- | --- | --- | --- | --- | --- | --- | --- |
| Cc1cc(Nc2ncc(Cl)c(Nc3ccccc3S(=O)(=O)C(C)C)n2)c(OC(C)C)cc1C1=CCN(C2CCOCC2)CC1 [Compound 5, 5-chloro-N^2-(2-isopropoxy-5-methyl-4-(1-(tetrahydro-2H-pyran-4-yl)-1,2,3,6-tetrahydropyridin-4-yl)phenyl)-N^4-(2-(isopropylsulfonyl)phenyl)pyrimidine-2,4-diamine] | 825 nM | 2310 nM | 956 nM | 2600 nM | 2.21 µM | 2.27 µM | – |
| C=CC(=O)N1CCC[C@@H](n2nc(-c3ccc(Oc4ccccc4)cc3)c3c(N)ncnc32)C1 [Ibrutinib] | 245 nM | 1220 nM | – | 3010 nM | 9.88 µM | 4.42 µM | 177 nM |
